How the values were obtained:
Type in all cases: cell-based
THRα = molecular target: T1, THRα (Homo sapiens, UniProt P10827); test: Gal4-hybrid reporter gene assay THRα; details: n ≥ 3; for fold act. THRα: mean, Fig. 8; for EC50: HEK293T, Gal4-hybrid reporter, Inactive = tested 1–300 μM; for EC50 / max. fold activation THRα: mean ± S.E.M.; for max. fold activation THRα: maximum reporter activation vs DMSO (0.1%) treated cells
T1 construct: expressed in transfected cells; host or cells: HEK293T
T1 sequence (P10827 128-410 isoform P10827-2 limits assumed): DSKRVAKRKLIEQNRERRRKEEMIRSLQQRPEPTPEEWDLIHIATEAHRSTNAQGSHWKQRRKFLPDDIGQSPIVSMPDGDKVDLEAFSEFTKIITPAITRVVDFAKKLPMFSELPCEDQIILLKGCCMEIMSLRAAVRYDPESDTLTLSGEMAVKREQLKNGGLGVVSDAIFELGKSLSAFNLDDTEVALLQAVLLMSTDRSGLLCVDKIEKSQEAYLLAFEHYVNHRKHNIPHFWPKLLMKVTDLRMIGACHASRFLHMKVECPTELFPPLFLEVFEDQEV
Experimental: (§1) NR modulation was determined as described previously[45] in Gal4 hybrid reporter gene assays in HEK293T cells (German Collection of Microorganisms and Cell Culture GmbH, DSMZ) using pFR-Luc (Stratagene, La Jolla, CA, USA; reporter), pRL-SV40 (Promega, Madison, WI, USA; internal control) and the hybrid receptor clones pFA-CMV-hTHRα-LBD,[46] pFA-CMV-hPPARγ-LBD,[47] pFA-CMV-hFXR-LBD,[48] and pFA-CMV-hRXRα-LBD,[49] coding for the hinge region and ligand binding domain of the canonical isoform of the respective NR. Cells were cultured in Dulbecco's modified Eagle's medium (DMEM), high glucose supplemented with 10% fetal calf serum (FCS), sodium pyruvate (1 mM), penicillin (100 U mL^−1), and streptomycin (100 μg mL^−1) at 37 °C and 5% CO2 and seeded in 96-well plates (3 × 10^4 cells per well). After 24 h, medium was changed to Opti-MEM without supplements and cells were transiently transfected using Lipofectamine LTX reagent (Invitrogen, Carlsbad, CA, USA) according to the manufacturer's protocol. Five hours after transfection, cells were incubated with the test compounds in Opti-MEM supplemented with penicillin (100 U mL^−1), streptomycin (100 μg mL^−1) and 0.1% DMSO for 16 h before luciferase activity was measured using the Dual-Glo Luciferase Assay System (Promega) according to the manufacturer's protocol on a Tecan Spark luminometer (Tecan Deutschland GmbH, Crailsheim, Germany). Firefly luminescence was divided by Renilla luminescence and multiplied by 1000 resulting in relative light units (RLU) to normalize for transfection efficiency and cell growth. Fold activation was obtained by dividing the mean RLU of test compound by the mean RLU of the untreated control. All samples were tested in at least three biologically independent experiments in duplicates. For dose–response curve fitting and calculation of EC50 values, the equation “[agonist] vs. response − variable slope (four parameters)” was used in GraphPad Prism (version 7.00, GraphPad Software, La Jolla, CA, USA). For selectivity profiling, the hybrid reporter gene assay was performed with Gal4 fusion receptor plasmids for RARα, PPARα, PPARδ, VDR, CAR and LXRα. The following reference agonists were used: triiodothyronine (1 μM, THR), all-trans retinoic acid (1 μM, RAR), GW7647 (1 μM, PPARα), pioglitazone (1 μM, PPARγ), L165041 (1 μM, PPARδ), calcitriol (1 μM, VDR), CITCO (1 μM, CAR), T0901317 (1 μM, LXR), GW4064 (1 μM, FXR), bexarotene (1 μM, RXR).

FXR = molecular target: T2, FXR (Homo sapiens, UniProt Q96RI1); test: Gal4-hybrid reporter gene assay FXR; details: n ≥ 3; for fold act. FXR: mean, Fig. 8; for EC50 / EC50 FXR: HEK293T, Gal4-hybrid reporter, Inactive = tested 1–300 μM; for EC50 / max. fold activation FXR / EC50 FXR: mean ± S.E.M.; for max. fold activation FXR: maximum reporter activation vs DMSO (0.1%) treated cells
T2 construct: expressed in transfected cells; host or cells: HEK293T
T2 sequence (Q96RI1 262-486 limits assumed): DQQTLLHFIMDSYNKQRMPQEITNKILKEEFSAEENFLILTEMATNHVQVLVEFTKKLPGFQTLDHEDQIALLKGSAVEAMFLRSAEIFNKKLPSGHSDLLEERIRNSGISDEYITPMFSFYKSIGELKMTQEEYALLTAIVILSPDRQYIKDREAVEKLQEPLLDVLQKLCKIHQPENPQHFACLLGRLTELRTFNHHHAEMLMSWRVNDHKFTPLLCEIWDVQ
Experimental: as §1

RARα = molecular target: T3, RARα (Homo sapiens, UniProt P10276); test: Gal4-hybrid reporter gene assay RARα (selectivity); details: mean, n ≥ 3, Fig. 8
T3 construct: expressed in transfected cells; host or cells: HEK293T
T3 sequence (P10276 154-462 limits assumed): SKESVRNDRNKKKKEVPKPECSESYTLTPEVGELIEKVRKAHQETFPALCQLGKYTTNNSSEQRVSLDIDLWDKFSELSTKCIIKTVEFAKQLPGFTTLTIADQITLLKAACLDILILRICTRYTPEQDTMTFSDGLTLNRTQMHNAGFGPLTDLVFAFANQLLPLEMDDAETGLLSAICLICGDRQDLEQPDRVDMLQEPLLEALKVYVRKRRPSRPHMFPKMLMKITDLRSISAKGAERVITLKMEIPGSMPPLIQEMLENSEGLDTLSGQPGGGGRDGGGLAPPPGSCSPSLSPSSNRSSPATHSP
Experimental: as §1

PPARγ = molecular target: T4, PPARγ (Homo sapiens, UniProt P37231); test: Gal4-hybrid reporter gene assay PPARγ; details: n ≥ 3; for fold act. PPARγ: mean, Fig. 8; for EC50: HEK293T, Gal4-hybrid reporter, Inactive = tested 1–300 μM; for EC50 / max. fold activation PPARγ: mean ± S.E.M.; for max. fold activation PPARγ: maximum reporter activation vs DMSO (0.1%) treated cells
T4 construct: expressed in transfected cells; host or cells: HEK293T
T4 sequence (P37231 238-503 limits assumed): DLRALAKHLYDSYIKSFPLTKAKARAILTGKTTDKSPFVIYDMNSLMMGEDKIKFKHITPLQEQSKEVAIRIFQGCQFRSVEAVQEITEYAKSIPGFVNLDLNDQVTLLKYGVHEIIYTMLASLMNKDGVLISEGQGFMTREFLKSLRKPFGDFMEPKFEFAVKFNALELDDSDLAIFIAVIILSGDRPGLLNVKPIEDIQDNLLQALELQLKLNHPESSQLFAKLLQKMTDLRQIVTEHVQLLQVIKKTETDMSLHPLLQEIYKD
Experimental: as §1

| fold act. THRα (THRα; 10 μM) | EC50 (THRα) | max. fold activation THRα (THRα) | fold act. FXR (FXR; 10 μM) | EC50 (FXR) | max. fold activation FXR (FXR) | fold act. RARα (RARα; 10 μM) | fold act. PPARγ (PPARγ; 10 μM) | EC50 (PPARγ) | max. fold activation PPARγ (PPARγ) | fold act. THRα (THRα; 30 μM) | fold act. FXR (FXR; 30 μM) | EC50 FXR (FXR) | fold act. RARα (RARα; 30 μM) | fold act. PPARγ (PPARγ; 30 μM) | fold act. THRα (THRα; 40 μM) | fold act. FXR (FXR; 40 μM) | fold act. RARα (RARα; 40 μM) | fold act. PPARγ (PPARγ; 40 μM) | SMILES |
| --- | --- | --- | --- | --- | --- | --- | --- | --- | --- | --- | --- | --- | --- | --- | --- | --- | --- | --- | --- |
| 4 fold | 1.5 ± 0.2 µM | (3.7 ± 0.2-fold) | 6 fold | 1.3 ± 0.3 µM | (6.4 ± 0.3-fold) | 6 fold | 6 fold | 3 ± 1 µM | (6.4 ± 0.6-fold) |  |  |  |  |  |  |  |  |  | CCOc1ccc(-c2cc(C(=O)O)co2)cc1 [3.1, 5-(4-Ethoxyphenyl)furan-3-carboxylic acid] |
|  | 43 ± 3 µM | (4.2 ± 0.3-fold) |  |  |  |  |  | 20 ± 5 µM | (13 ± 2-fold) | 2 fold | 1 fold | Inactive | 1 fold | 9 fold |  |  |  |  | O=C(O)/C=C/C(=O)c1ccc(Cl)cc1Cl [4.6, (E)-4-Oxo-4-(2,4-dichlorophenyl)but-2-enoic acid] |
|  | 16 ± 7 µM | (14.8 ± 1.0-fold) |  |  |  |  |  | 18 ± 4 µM | (33.4 ± 2.7-fold) | 15 fold | 1 fold | Inactive | 3 fold | 32 fold |  |  |  |  | O=C(O)/C=C/C(=O)c1ccc(-c2ccccc2)cc1 [4.7, (E)-4-([1,1′-Biphenyl]-4-yl)-4-oxobut-2-enoic acid] |
|  | 39 ± 1 µM | (28 ± 1-fold) |  | 26 ± 4 µM | (7 ± 1-fold) |  |  | 27 ± 1 µM | (16.7 ± 0.5-fold) |  |  |  |  |  | 16 fold | 6 fold | 3 fold | 18 fold | O=C(O)/C=C/C(=O)c1ccc2ccccc2c1 [4.8, (E)-4-Oxo-4-(naphthalen-2-yl)but-2-enoic acid] |

Reference: publication PMC12352620, “Fragment-based discovery of dual ligand pharmacophores for lipid-sensing transcription factors for designed polypharmacology” (RSC Medicinal Chemistry, 2025)
